In US9408925B2, “Hyperpolarized lactate contrast agent for determination of LDH activity” (GE Healthcare Limited, priority 2010, dated 2016):

Key:
[1] = 13C T1 and T2 relaxation of non-polarized lactate samples (10 mM) at 9.4 T; format: physicochemical
Description: For FIG. 3, the samples contained 10 mM of either L-[1-^13C1, 2-^2H1] lactate or L-[1-^13C1] lactate (non-polarized). The T1 of the deuterated lactate was 55.8+/−2.2 s (n=1) and the T2 1.33+/−0.10 s (n=4) and the T1 of the C2 protonated lactate was 46.9+/−4.0 s (n=1) and the T2 1.49+/−0.13 s (n=2) (at 9.4 T). Heteronuclear ^13C/^1H double echo spectra were acquired using a 10 μs 90° ^13C pulse, a 5 ms adiabatic 180° ^13C pulse (bandwidth ˜2 kHz) and a 10 ms adiabatic ^1H pulse (bandwidth ˜1 kHz), which was centered on either the C2 or C3 lactate proton resonances (FIG. 2B). The TR was 20 s. Initial dummy scans produced a steady state z magnetization. The spectral bandwidth was 8 kHz and data were collected into 2048 complex points. Phase and amplitude corrected peak integrals for the lactate ^13C resonance were measured. The echo time is equivalent to 2τ.

[2] = T1 estimated from series of heteronuclear 13C/1H double echo spectra of hyperpolarized equimolar lactate mixture; format: physicochemical; details: 10 mM, multiple double echo spectra (FIG. 6)
Description: L-[1-^13C1] lactate was hyperpolarized using the DMSO preparation described in (Chen, A. P., et al. Feasibility of using hyperpolarized [1-C-13] lactate as a substrate for in vivo metabolic C-13 MRSI studies. Magnetic Resonance Imaging 26, 721-726 (2008)) with added Gd^3+. Briefly, 70 mg of a ˜50% w/w sodium L-[1-^13C1] lactate solution (0.31 mmol) (Sigma Aldrich, Gillingham, UK) is added to 27 mg DMSO (0.36 mmol) (Sigma Aldrich, Gillingham, UK), 2 mg OX 63 radical (1.4 μmol)(GE Healthcare) and 2.7 mg of a 50 mmol/L solution of Dotarem Gd^3+ chelate (Guerbet, Roissy, France). For in vitro experiments, one third of the resulting solution is polarised to the maximum at the optimal microwave frequency. Once the polarisation is at a maximum, the dissolution is performed with 6 mL of a 40 mmol/L Tris based buffer (pH=7.6) with added 100 mg/L EDTA. The final concentration of hyperpolarised L-[1-^13C1] lactate is then approximately 17 mmol/L. Acquisition of hetero-nuclear ^13C/^1H double echo spectra (TE=300 ms), with and without a 180° ^1H pulse, gave the spectra shown in FIG. 4.
An equimolar mixture of L-[1-^13C1] lactate and L-[1-^13C1, 2-^2H1] lactate was prepared and polarized to ˜26+/−0.5% (n=2). The final lactate concentration in the NMR tube was 10 mM.
Spectra were acquired with and without the 180° ^1H pulse. […]

Row | Structure (SMILES) | T1 [1] [s] | T2 [1] [s] | estimated T1 [2] [s]
1 | [2H][C@@](C)(O)[13C](=O)O [L-[1-^13C1,2-^2H1] lactate, L-[1-^13C, 2-^2H] Lactate] | 55.8 ± 2.2 | 1.33 ± 0.10 | 27
2 | C[C@H](O)[13C](=O)[O-].[Na+] [L-[1-^13C1] lactate, Sodium L-[1-^13C1] lactate] | 46.9 ± 4.0 | 1.49 ± 0.13 | 25
